Source: US20100273814A1, “((PHENYL)IMIDAZOLYL)METHYLHETEROARYL COMPOUNDS” (priority 2007, published 2010)
Read-outs that look alike come from different tables or passages of the source.

What was measured:
Assay type in all cases: cell-based
alpha2C receptor = target: T1, alpha2C receptor (Homo sapiens, UniProt P18825); experiment: Receptor Selection and Amplification Technology (RSAT) assay, alpha2C; details: RSAT; for EC50: transfected NIH-3T3 cells, value outside brackets, read-out: Alpha 2C EC50 (potency); for Alpha 2C intrinsic activity (efficacy): ratio of maximal effect to that of standard full agonist brimonidine (UK14304), value in brackets
T1 construct: expressed in transfected cells; host or cells: NIH-3T3 cells
T1 sequence (P18825 1-462): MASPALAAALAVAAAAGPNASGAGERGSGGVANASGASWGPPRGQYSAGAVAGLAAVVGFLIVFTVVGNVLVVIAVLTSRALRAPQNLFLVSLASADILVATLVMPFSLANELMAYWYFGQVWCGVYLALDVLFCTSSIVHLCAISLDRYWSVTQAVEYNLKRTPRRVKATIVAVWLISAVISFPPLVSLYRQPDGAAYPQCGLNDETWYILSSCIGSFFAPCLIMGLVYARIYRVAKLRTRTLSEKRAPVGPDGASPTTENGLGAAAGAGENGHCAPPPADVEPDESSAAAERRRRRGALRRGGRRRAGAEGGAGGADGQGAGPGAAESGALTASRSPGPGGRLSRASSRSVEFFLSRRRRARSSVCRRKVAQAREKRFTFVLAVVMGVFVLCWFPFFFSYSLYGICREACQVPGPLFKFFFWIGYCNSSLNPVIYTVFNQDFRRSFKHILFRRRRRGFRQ
Method: (§1) Receptor Selection and Amplification Technology (RSAT) Assay
(§2) The RSAT assay measures a receptor-mediated loss of contact inhibition that results in selective proliferation of receptor-containing cells in a mixed population of confluent cells. The increase in cell number is assessed with an appropriate transfected marker gene such as β-galactosidase, the activity of which can be easily measured in a 96-well format. Receptors that activate the G protein, Gq, elicit this response. Alpha2 receptors, which normally couple to Gi, activate the RSAT response when coexpressed with a hybrid Gq protein that has a Gi receptor recognition domain, called Gq/i5.
(§3) NIH-3T3 cells are plated at a density of 2×10^6 cells in 15 cm dishes and maintained in Dulbecco's modified Eagle's medium supplemented with 10% calf serum. One day later, cells are cotransfected by calcium phosphate precipitation with mammalian expression plasmids encoding p-SV-β-galactosidase (5-10 μg), receptor (1-2 μg) and G protein (1-2 μg). 40 μg salmon sperm DNA may also be included in the transfection mixture. Fresh media is added on the following day and 1-2 days later, cells are harvested and frozen in 50 assay aliquots. Cells are thawed and […] added to 100 aliquots of various concentrations of drugs in triplicate in 96-well dishes. Incubations continue 72-96 hr at 37° C. After washing with phosphate-buffered saline, β-galactosidase enzyme activity is determined by adding 200 μl of the chromogenic substrate (consisting of 3.5 mM o-nitrophenyl-β-D-galactopyranoside and 0.5% nonidet P-40 in phosphate buffered saline), incubating overnight at 30° C. and measuring optical density at 420 nm. The absorbance is a measure of enzyme activity, which depends on cell number and reflects a receptor-mediated cell proliferation. The efficacy or intrinsic activity is calculated as a ratio of the maximal effect of the drug to the maximal effect of a standard full agonist for each receptor subtype. Brimonidine, also called UK14304, the chemical structure of which is shown below, is used as the standard agonist for the alpha2A, alpha2B and alpha2C receptors. The EC50 is the concentration at which the drug effect is half of its maximal effect.
(§4) EC50 values are nanomolar. ND stands for “not determinable” at concentrations less than 10 micromolar. IA stands for “intrinsic activity.”

alpha2B receptor = target: T2, alpha2B receptor (Homo sapiens, UniProt P18089); experiment: Receptor Selection and Amplification Technology (RSAT) assay, alpha2B; details: for Alpha 2B intrinsic activity (efficacy): ratio of maximal effect to that of standard full agonist brimonidine (UK14304), value in brackets
T2 construct: expressed in transfected cells; host or cells: NIH-3T3 cells
T2 sequence (P18089 1-450): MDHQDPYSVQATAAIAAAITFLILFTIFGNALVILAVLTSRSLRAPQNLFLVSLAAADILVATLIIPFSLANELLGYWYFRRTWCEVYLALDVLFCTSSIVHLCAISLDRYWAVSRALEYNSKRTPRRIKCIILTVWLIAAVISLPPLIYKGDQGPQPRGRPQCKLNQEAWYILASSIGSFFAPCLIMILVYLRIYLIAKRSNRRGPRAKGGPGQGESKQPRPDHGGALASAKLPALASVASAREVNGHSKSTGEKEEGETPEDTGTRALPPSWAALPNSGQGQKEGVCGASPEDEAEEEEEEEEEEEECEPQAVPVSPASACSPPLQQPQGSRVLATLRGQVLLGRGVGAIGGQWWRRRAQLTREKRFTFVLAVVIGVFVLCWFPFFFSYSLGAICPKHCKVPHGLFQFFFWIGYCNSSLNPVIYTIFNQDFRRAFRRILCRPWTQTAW
Method: as §1, §2, §3, §4

alpha2A receptor = target: T3, alpha2A receptor (Homo sapiens, UniProt P08913); experiment: Receptor Selection and Amplification Technology (RSAT) assay, alpha2A; details: RSAT; for EC50: transfected NIH-3T3 cells, value outside brackets, read-out: Alpha 2A EC50 (potency); for Alpha 2A intrinsic activity (efficacy): ratio of maximal effect to that of standard full agonist brimonidine (UK14304), value in brackets
T3 construct: expressed in transfected cells; host or cells: NIH-3T3 cells
T3 sequence (P08913 1-465): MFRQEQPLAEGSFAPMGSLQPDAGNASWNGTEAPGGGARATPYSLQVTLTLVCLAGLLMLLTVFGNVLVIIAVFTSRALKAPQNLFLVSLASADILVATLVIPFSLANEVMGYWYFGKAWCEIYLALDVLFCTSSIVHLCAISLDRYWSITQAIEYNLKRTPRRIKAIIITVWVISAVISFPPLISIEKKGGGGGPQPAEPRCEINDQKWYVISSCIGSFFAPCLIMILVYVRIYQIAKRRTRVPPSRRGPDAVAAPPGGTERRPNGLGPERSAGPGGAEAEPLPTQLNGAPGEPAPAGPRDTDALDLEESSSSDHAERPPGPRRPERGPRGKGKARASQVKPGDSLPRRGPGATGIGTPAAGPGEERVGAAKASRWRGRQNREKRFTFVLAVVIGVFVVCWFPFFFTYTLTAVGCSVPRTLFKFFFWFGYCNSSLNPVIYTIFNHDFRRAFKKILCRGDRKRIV
Method: as §1, §2, §3, §4

[1] = RSAT, transfected NIH-3T3 cells, value outside brackets, read-out: Alpha 2B EC50 (potency)

SMILES	EC50 (alpha2C receptor)	Alpha 2C intrinsic activity (efficacy) (alpha2C receptor)	EC50 (alpha2B receptor; [1])	Alpha 2B intrinsic activity (efficacy) (alpha2B receptor; RSAT)	EC50 (alpha2A receptor)	Alpha 2A intrinsic activity (efficacy) (alpha2A receptor)	EC50 (alpha2B receptor)
Cc1cccc(C(c2cccnc2)c2c[nH]cn2)c1C (centres unmarked) [3-((2,3-dimethylphenyl)(1H-imidazol-5-yl)methyl)pyridine]	14 nM	0.55	0.33 nM	1.25	> 10000 nM	0.19	–
c1ccc(C(c2ccccn2)c2c[nH]cn2)cc1 (centres unmarked) [2-((phenyl)(1H-imidazol-5-yl)methyl)pyridine]	> 10000 nM	0.09	469 nM	0.87	> 10000 nM	0.04	–
CC(C)c1ccc(C(c2c[nH]cn2)c2cccc(F)c2Cl)s1 (centres unmarked)	–	0.23	75 nM	0.40	–	0.06	–
Cc1c(Cl)cccc1C(c1ccncc1)c1c[nH]cn1 (centres unmarked) [4-((3-chloro-2-methylphenyl)(1H-imidazol-5-yl)methyl)pyridine]	83 nM	0.46	10.3 nM	1.10	> 10000 nM	0.11	–
Fc1c(C(c2ccncc2)c2c[nH]cn2)cccc1C(F)(F)F (centres unmarked) [4-((2-fluoro-3-(trifluoromethyl)phenyl)(1H-imidazol-5-yl)methyl)pyridine]	> 10000 nM	0.29	45 nM	1.29	> 10000 nM	0.14	–
Fc1c(Cl)cccc1C(c1ccccn1)c1cnc[nH]1 (centres unmarked) [2-((3-chloro-2-fluorophenyl)(1H-imidazol-5-yl)methyl)pyridine]	177 nM	0.49	32 nM	1.21	> 10000 nM	0.07	–
Cc1cccc(C(c2ccncc2)c2c[nH]cn2)c1C (centres unmarked) [4-((2,3-dimethylphenyl)(1H-imidazol-5-yl)methyl)pyridine]	605 nM	0.49	4.4 nM	1.07	1510 nM	0.32	–
Fc1c(Cl)cccc1C(c1cccnc1)c1cnc[nH]1 (centres unmarked) [3-((3-chloro-2-fluorophenyl)(1H-imidazol-5-yl)methyl)pyridine]	64 nM	0.55	5.2 nM	1.34	> 10000 nM	0.28	–
Fc1c(Cl)cccc1C(c1c[nH]cn1)c1cccs1 (centres unmarked)	–	0.28	–	0.93	–	0.21	46 nM
Fc1cccc(C(c2ccncc2)c2c[nH]cn2)c1 (centres unmarked) [4-((3-fluorophenyl)(1H-imidazol-5-yl)methyl)pyridine]	> 10000 nM	0.23	562 nM	0.93	> 10000 nM	0.04	–
Cc1ccccc1C(c1cccnc1)c1c[nH]cn1 (centres unmarked) [3-((2-methylphenyl)(1H-imidazol-5-yl)methyl)pyridine]	> 10000 nM	0.29	259 nM	0.61	> 10000 nM	0.06	–
Clc1cccc(C(c2ccncc2)c2c[nH]cn2)c1Cl (centres unmarked) [4-((2,3-dichlorophenyl)(1H-imidazol-5-yl)methyl)pyridine]	97 nM	0.72	3.2 nM	1.31	> 10000 nM	0.18	–
Fc1cccc(C(c2ccccn2)c2c[nH]cn2)c1F (centres unmarked) [2-((2,3-difluorophenyl)(1H-imidazol-5-yl)methyl)pyridine]	> 10000 nM	0.16	405 nM	1.08	> 10000 nM	0.05	–
Clc1cccc(C(c2cccnc2)c2c[nH]cn2)c1Cl (centres unmarked)	112 nM	0.87	1.62 nM	1.15	605 nM	0.37	–
Cc1ccccc1C(c1ccccn1)c1c[nH]cn1 (centres unmarked) [2-((2-methylphenyl)(1H-imidazol-5-yl)methyl)pyridine]	213 nM	0.57	177 nM	0.92	> 10000 nM	0.03	–
